Test results: publication PMC3454513 (Nature structural & molecular biology, 2012)

B1: PHF20 Tudor2 (amino acids 84–147), disulfide cross-linked homodimer (domain or fragment, human, UniProt Q9BVI0 84-147, looked up)
chain: SSEFQINEQVLACWSDCRFYPAKVTAVNKDGTYTVKFYDGVVQTVKHIHVKAFSKDQNIVGNAR
modifications: disulfide bonds between Cys96 and Cys100 of subunit A and Cys100 and Cys96 of subunit B

How the values were obtained:
[1] = tested on: PHF20 Tudor2 and Tudor1-2; assay type: binding, human; conditions: peptide array (Supplementary Fig. 1)
p53 = assay: Immunoblot of p53 phosphorylated at Ser15, HCT 116 cells; assay type: cell-based, human; conditions: 10 μM doxorubicin or 100 μM etoposide for 4 h
mass spectrometry = molecular target: the molecule itself; assay: mass spectrometry

| Molecule | interaction with PHF20 among the four known methylated forms of p53 [1] | other results |
| --- | --- | --- |
| p53K370me2: Cy3-labeled 18-amino acid p53 peptide dimethylated at Lys370 | strongest interaction | – |
| p53K382me2: Cy3-labeled 18-amino acid p53 peptide dimethylated at Lys382 | strongest interaction | – |
| COc1cccc2c1C(=O)c1c(O)c3c(c(O)c1C2=O)C[C@@](O)(C(=O)CO)C[C@@H]3O[C@H]1C[C@H](N)[C@H](O)[C@H](C)O1 [doxorubicin] | – | phosphorylation of p53 at Ser15 (p53): induced phosphorylation of p53 at Ser15 |
| B1 | – | stoichiometry N (mass spectrometry): 2 |
